# In patent US7598269B2, “Methods and compositions for treating amyloid-related diseases” (Bellus Health (International) Limited, priority 2003, dated 2009):
# Key:
# [1] = target: T1, NAC peptide (Homo sapiens, UniProt P37840); test: Binding to NAC peptide by electrospray mass spectrometry; conditions: area of bound NAC-compound complex peaks / unbound NAC; compound:NAC 5:1, 6.6% EtOH, pH 7.4
# T1 construct: NAC is a 35 amino acid long peptide with highly hydrophobic stretches
# Experimental: The ability of the compounds of the present invention to bind to NAC peptide in aqueous solution was evaluated. The binding ability correlates to the intensities of the peptide-compound complex peaks observed by the Electrospray Mass Spectrum. Millipore distilled deionized water was used to prepare all aqueous solutions. For pH determination a Beckman Φ36 pH meter fitted with a Corning Semi-Micro Combination pH Electrode was employed.
# The optimal cone voltage was determined to be 20V.
# Mass spectrometry—Mass spectrometric analysis was performed using a Waters ZQ 4000 mass spectrometer equipped with a Waters 2795 sample manager. MassLynx 4.0 (earlier by MassLynx 3.5) was used for data processing and analysis. Test compounds were mixed with disaggregated peptides in aqueous media (6.6% EtOH) at a 5:1 ratio (20 μM NAC: 100 μM of test compound or 40 μM NAC:200 μM of test compound). The pH of the mixture was adjusted to 7.4 (±0.2) using 0.1% NaOH (3-5 μL). Periodically, NAC peptide solution at 20 μM or 40 μM was also prepared in the same fashion and run as control. The spectra were obtained by introducing the solutions to the electrospray source by direct infusion using a syringe pump at a flow rate of 25 μl/min, and scanning from 100 to 2100 Da in the positive mode. The scan time was 0.9 sec per scan with an inter-scan delay of 0.1 sec and the run time was 5 min for each sample. All the mass spectra were sum of 300 scans. The desolvation and source temperature was 70° C. and the cone and capillary voltage were maintained at 20 V and 3.2 kV respectively.
# The total area under the peaks for the bound NAC-compound complex divided by total area under the peaks for unbound NAC was determined for each compound tested.
# [2] = tested on: Aβ peptides; test: Short term treatment of TgCRND8 mice: Aβ peptide levels; type: in vivo, Mouse; conditions: after 14 and 28 days of treatment
# Experimental: The short term therapeutic effect of 19 compounds of the invention was studied. These compounds were administered over a 14 or 28 day period at the end of which the levels of Aβ peptides in the plasma and brain of TgCRND8 animals were determined.
# Starting at 11 weeks of age (±1 week) animals received daily administration of their respective treatment for a period of 14 or 28 days (groups 2-21), at a dose of 250 mg/kg at 10 ml/kg or of vehicle only (water; group 2) or 1% methyl cellulose only (group 21). The route of administration was subcutaneous for water-soluble compounds and oral for compounds solubilized in methylcellulose 1% (MC 1%). At the end of the treatment periods, plasma and perfused brains were collected for quantification of Aβ levels.
# Aβ levels were evaluated in plasma and brain samples by ELISA using Human Aβ40 and Aβ42 Fluorometric ELISA kits from Biosource (Cat. No. 89-344 and 89-348) according to manufacturer's recommended procedures. […] The plate was incubated for 35 minutes at room temperature and the plate was read using a titer plate reader at an excitation wavelength of 460 nm and emission at 560 nm.
# Compounds were scored based on their ability to modulate levels of Aβ peptides in the plasma and the cerebral soluble/insoluble levels in the brain. […] The strongest effects are recorded as “+++” or “−−−” while the weakest are shown as “+” or “−”.
# [3] = target: T2, Aβ42 (Homo sapiens, UniProt P05067); test: Short term treatment of TgCRND8 mice: Aβ42 levels in plasma and brain (ELISA); type: in vivo, Mouse; conditions: brain homogenate, methylcellulose group
# T2 construct: from tissue; host or cells: plasma and brain homogenate of TgCRND8 transgenic mice (hAPP transgene)
# T2 sequence (P05067 672-713 limits assumed): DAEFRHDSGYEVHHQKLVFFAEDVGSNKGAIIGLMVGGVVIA
# Description: (§1) Transgenic mice, […]8, expressing the human amyloid precursor protein (hAPP) develop a pathology resembling Alzheimer's disease. In particular, high levels of Aβ40 and Aβ42 have been documented in the plasma and the brain of these animals at 8-9 weeks of age, followed by early accumulation of amyloid plaques similar to the senile plaques observed in […]. These animals also display progressive cognitive deficits that parallel the appearance of degenerative changes. See, […], et al., J. Biol. Chem. 276, 21562-70 (2001). The short term therapeutic effect of 19 compounds of the invention was studied. […] The following abbreviations are used to designate these animals from the 3rd and 4th generation backcross in the present protocol: TgCRND8-2.B6C3F1 (N3); TgCRND8-2.B6C3F1 (N4). Baseline animals (Group 1) consisted of naive TgCRND8-2.B6C3F1(N3) at 11±1 weeks of age. These mice were used to determine the Aβ levels in the plasma and brain of naive transgenic animals at the initiation of treatment. […] At the end of the treatment periods, plasma and perfused brains were collected for quantification of Aβ levels. […] Plasma samples were immediately frozen and stored at -80° C. pending analysis. The brains were removed, frozen, and stored at -80° C. awaiting analysis. […] Samples were spun at 15000 g for 20 minutes and the supernatants were transferred to fresh tubes. […] The tubes were vortexed for 30 seconds and frozen at -80° C. […] Samples were thawed at room temperature, sonicated at 80° C. for 15 minutes and frozen again. This cycle was repeated 3 times to ensure homogeneity and samples were returned to -80° C. pending analysis. Aβ levels were evaluated in plasma and brain samples by ELISA using Human Aβ40 and Aβ42 Fluorometric ELISA kits from Biosource (Cat. […] In short, samples were thawed at room temperature, sonicated for 5 minutes at 80° C. (sonication for brain homogenates; no sonication for plasma samples) and kept on ice. Aβ peptides were captured using 100 μl of the diluted samples to the plate and incubated without shaking at 4° C. overnight. The samples were aspirated and the wells were rinsed 4 times with wash buffer obtained from the Biosource ELISA kit. The anti-Aβ40 or anti-Aβ42 rabbit polyclonal antiserum (specific for the Aβ40 or Aβ42 peptide) was added (100 μl) and the plate was incubated at room temperature for 2 hours with shaking. The wells were aspirated and washed 4 times before adding 100 μl of the alkaline phosphatase labeled anti-rabbit antibody and incubating at room temperature for 2 hours with shaking. The plates were then rinsed 5 times and the fluorescent substrate (100 μl) was added to the plate. The plate was incubated for 35 minutes at room temperature and the plate was read using a titer plate reader at an excitation wavelength of 460 nm and emission at 560 nm. Compounds were scored based on their ability to modulate levels of Aβ peptides in the plasma and the cerebral soluble/insoluble levels in the brain. Levels of Aβ observed in the plasma and brain of treated animals were normalized using values from vehicle-treated (water) or methylcellulose-treated control groups and ranked according to the strength of the pharmacological effect. Increases in the levels of Aβ peptides are indicated using “+” symbols, while decreases in the levels of Aβ peptides are indicated using “-” symbols. The strongest effects are recorded as “+++” or “---” while the weakest are shown as “+” or “-”.
# [4] = target: T3, Aβ40 (Homo sapiens, UniProt P05067); test: Short term treatment of TgCRND8 mice: Aβ40 levels in plasma and brain (ELISA); type: in vivo, Mouse; conditions: methylcellulose group
# T3 construct: from tissue; host or cells: plasma and brain homogenate of TgCRND8 transgenic mice (hAPP transgene)
# T3 sequence (P05067 672-711 limits assumed): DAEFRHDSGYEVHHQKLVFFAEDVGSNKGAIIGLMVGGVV
# Description: as §1
# [5] = brain homogenate, Day 28, 250 mg/kg daily oral
molecule,measurement,setting,value
"CCCCCCCCCCCCCC[N+](C)(C)CCCS(=O)(=O)[O-] [NA, CH3(CH2)13N^+(CH3)2(CH2)3SO3^−]",Binding Strength,[1],++ (Moderate; when the total binding is between 120% and 70%)
O=C1NCCCC[C@@H]1NCCCS(=O)(=O)[O-].[Na+],Binding Strength,[1],+ (Weak; when the total binding is between 70% and 30%)
CH3(CH2)9N^+(CH3)2(CH2)3SO3^− [DB],Binding Strength,[1],+++ (Strong; when the total binding is 120% and higher)
"CC(C)(C)NCCCS(=O)(=O)O [Compound BX, 3-(t-butyl)amino-1-propanesulfonic acid]",levels of Aβ peptides in the plasma,[2],significant increase
"CCCCCCCCCCCC[N+](C)(C)CCCS(=O)(=O)[O-] [DF, CH3(CH2)11N^+(CH3)2(CH2)3SO3^−]",Binding Strength,[1],++ (Moderate; when the total binding is between 120% and 70%)
NCCCCS(=O)(=O)[O-].[Na+],Binding Strength,[1],− (None; when the total binding is between 30% and 0%)
"O=S(=O)(O)CCCNC1CCCc2ccccc21 (stereo not drawn) [Compound BU, 3-(1,2,3,4-tetrahydro-1-naphthylamino)-1-propanesulfonic acid]",Aβ42 Change Insoluble,"[3]; Day 14, 250 mg/kg daily oral",−−− (decreases of 39% or more are scored as “−−−”)
same,Aβ42 Change Insoluble,"[3]; Day 28, 250 mg/kg daily oral",−− (decreases of 20 to 38% are scored as “−−”)
same,Aβ40 Change Soluble,"[4]; brain homogenate, Day 14, 250 mg/kg daily oral",− (Decreases in the levels of Aβ of 5 to 19% are scored as “−”)
same,Aβ40 Change Insoluble,[4]; [5],−− (decreases of 20 to 38% are scored as “−−”)
same,Aβ40 Change Soluble,[4]; [5],−− (decreases of 20 to 38% are scored as “−−”)
same,Aβ40 Change,"[4]; plasma, Day 14, 250 mg/kg daily oral, TgCRND8 mice",− (Decreases in the levels of Aβ of 5 to 19% are scored as “−”)
